Tested on: IFNα-Induced STAT Phosphorylation
Assay: IFNα-Induced STAT Phosphorylation in Human Whole Blood
Assay type: cell-based
Conditions: Homo sapiens, 1 h compound incubation, 1000 U/mL recombinant human IFNα A/D for 15 min, pSTAT5 in CD3 positive population, read-out: LE Human WB IFNα-Induced Stat Phosph. (IC50)
Source text: IFNα-Induced STAT Phosphorylation in Human Whole Blood
The amount of pSTAT5 expression was quantitated by median fluorescence intensity after gating on the CD3 positive population.

| Structure (SMILES) | IC50 [µM] |
| --- | --- |
| [2H]C([2H])([2H])NC(=O)c1nnc(Nc2cc(C(F)(F)F)ccn2)cc1Nc1nccc(-c2ncn(C)n2)c1OC [Example 32, 4-{[3-methoxy-4-(1-methyl-1H-1,2,4-triazol-3-yl)pyridin-2-yl]amino}-N—(^2H3)methyl-6-{[4-(trifluoromethyl)pyridin-2-yl]amino}pyridazine-3-carboxamide] | 0.09 |
| [2H]C([2H])([2H])NC(=O)c1nnc(Nc2ccc(C(C)(C)O)cn2)cc1Nc1nccc(-c2ncn(C)n2)c1OC [Example 33, 6-{[5-(2-hydroxypropan-2-yl)pyridin-2-yl]amino}-4-{[3-methoxy-4-(1-methyl-1H-1,2,4-triazol-3-yl)pyridin-2-yl]amino}-N—(^2H3)methylpyridazine-3-carboxamide] | 0.02 |
| [2H]C([2H])([2H])NC(=O)c1nnc(Nc2ccc(OCC)nn2)cc1Nc1nccc(-c2ncn(C)n2)c1OC [Example 36, 6-[(6-ethoxypyridazin-3-yl)amino]-4-{[3-methoxy-4-(1-methyl-1H-1,2,4-triazol-3-yl)pyridin-2-yl]amino}-N—(^2H3)methylpyridazine-3-carboxamide] | 0.03 |
| [2H]C([2H])([2H])NC(=O)c1nnc(Nc2cc(F)c(F)cn2)cc1Nc1nccc(-c2ncn(C)n2)c1OC [Example 39, 6-[(4,5-difluoropyridin-2-yl)amino]-4-{[3-methoxy-4-(1-methyl-1H-1,2,4-triazol-3-yl)pyridin-2-yl]amino}-N—(^2H3)methylpyridazine-3-carboxamide] | 0.22 |
| [2H]C([2H])([2H])NC(=O)c1nnc(Nc2cc(C)ccn2)cc1Nc1nccc(-c2noc(CN3CCOCC3)n2)c1OC [Example 42, 4-((3-methoxy-4-(5-(morpholinomethyl)-1,2,4-oxadiazol-3-yl)pyridin-2-yl)amino)-N-trideuteromethyl-6-((4-methylpyridin-2-yl)amino)pyridazine-3-carboxamide] | 0.58 |
| [2H]C([2H])([2H])NC(=O)c1cnc(NC(=O)CC2CC2)cc1Nc1nccc(-c2noc(C)n2)c1OC [Example 44, 6-(2-cyclopropylacetamido)-4-{[3-methoxy-4-(5-methyl-1,2,4-oxadiazol-3-yl)pyridin-2-yl]amino}-N—(^2H3)methylpyridine-3-carboxamide] | 0.09 |
| [2H]C([2H])([2H])NC(=O)c1cnc(NC(=O)C2CC2)cc1Nc1nccc(-c2noc(COC)n2)c1OC [Example 45, 6-cyclopropaneamido-4-({3-methoxy-4-[5-(methoxymethyl)-1,2,4-oxadiazol-3-yl]pyridin-2-yl}amino)-N—(^2H3)methylpyridine-3-carboxamide] | 0.01 |
| [2H]C([2H])([2H])NC(=O)c1cnc(NC(=O)C2CC2)cc1Nc1nccc(-c2noc(COC(C)C)n2)c1OC [Example 47, 6-cyclopropaneamido-4-[(3-methoxy-4-{5-[(propan-2-yloxy)methyl]-1,2,4-oxadiazol-3-yl}pyridin-2-yl)amino]-N—(^2H3)methylpyridine-3-carboxamide] | 0.02 |
| [2H]C([2H])([2H])NC(=O)c1nnc(NC(=O)C2CC2)cc1Nc1nccc(-c2noc(COC)n2)c1OC [Example 50, 6-cyclopropaneamido-4-({3-methoxy-4-[5-(methoxymethyl)-1,2,4-oxadiazol-3-yl]pyridin-2-yl}amino)-N—(^2H3)methylpyridazine-3-carboxamide] | 0.04 |
| [2H]C([2H])([2H])NC(=O)c1nnc(NC(=O)C2CC2)cc1Nc1nccc(C#N)c1OC [Example 51, 4-[(4-cyano-3-methoxypyridin-2-yl)amino]-6-cyclopropaneamido-N—(^2H3)methylpyridazine-3-carboxamide] | > 10 |
| [2H]C([2H])([2H])NC(=O)c1nnc(NC(=O)OC)cc1Nc1nccc(-c2noc(CN(C)S(C)(=O)=O)n2)c1OC [Example 52, methyl N-{5-[(3-methoxy-4-{5-[(N-methylmethanesulfonamido)methyl]-1,2,4-oxadiazol-3-yl}pyridin-2-yl)amino]-6-[(^2H3)methylcarbamoyl]pyridazin-3-yl}carbamate] | 0.11 |
| [2H]C([2H])([2H])NC(=O)c1nnc(NC(=O)C2CC2)cc1Nc1nccc(-c2noc(CN(C)S(C)(=O)=O)n2)c1OC [Example 54, 6-cyclopropaneamido-4-[(3-methoxy-4-{5-[(N-methylmethanesulfonamido)methyl]-1,2,4-oxadiazol-3-yl}pyridin-2-yl)amino]-N—(^2H3)methylpyridazine-3-carboxamide] | 0.01 |
| [2H]C([2H])([2H])NC(=O)c1nnc(NC(=O)OC)cc1Nc1nccc(-c2noc(C)n2)c1OC [Example 56, methyl N-(5-{[3-methoxy-4-(5-methyl-1,2,4-oxadiazol-3-yl)pyridin-2-yl]amino}-6-[(^2H3)methylcarbamoyl]pyridazin-3-yl)carbamate] | 1.34 |
| [2H]C([2H])([2H])NC(=O)c1nnc(NC(=O)C2CC2)cc1Nc1nccc(-c2noc([C@H](C)O)n2)c1OC [Example 57, 6-cyclopropaneamido-4-[(4-{5-[(1S)-1-hydroxyethyl]-1,2,4-oxadiazol-3-yl}-3-methoxypyridin-2-yl)amino]-N—(^2H3)methylpyridazine-3-carboxamide] | 0.06 |
| [2H]C([2H])([2H])NC(=O)c1nnc(NC(=O)C2CC2)cc1Nc1nccc(-c2noc(CC#N)n2)c1OC [Example 60, 4-({4-[5-(cyanomethyl)-1,2,4-oxadiazol-3-yl]-3-methoxypyridin-2-yl}amino)-6-cyclopropaneamido-N—(^2H3)methylpyridazine-3-carboxamide] | 0.13 |
| [2H]C([2H])([2H])NC(=O)c1nnc(Nc2cc(C)ccn2)cc1Nc1nccc(-c2noc(CN(C)S(C)(=O)=O)n2)c1OC [Example 61, 4-[(3-methoxy-4-{5-[(N-methylmethanesulfonamido)methyl]-1,2,4-oxadiazol-3-yl}pyridin-2-yl)amino]-N—(^2H3)methyl-6-[(4-methylpyridin-2-yl)amino]pyridazine-3-carboxamide] | 0.3 |
| [2H]C([2H])([2H])NC(=O)c1nnc(Nc2cc(C)ccn2)cc1Nc1nccc(-c2noc(COC)n2)c1OC [Example 62, 4-({3-methoxy-4-[5-(methoxymethyl)-1,2,4-oxadiazol-3-yl]pyridin-2-yl}amino)-N—(^2H3)methyl-6-[(4-methylpyridin-2-yl)amino]pyridazine-3-carboxamide] | 1.13 |

Further compounds by falling IC50, results first:

| IC50 [µM] | Structure (SMILES) |
| --- | --- |
| 0.5 | [2H]C([2H])([2H])NC(=O)c1nnc(NC(=O)OC)cc1Nc1nccc(-c2noc(CN3CCOCC3)n2)c1OC [Example 53, methyl N-{5-[(3-methoxy-4-{5-[(morpholin-4-yl)methyl]-1,2,4-oxadiazol-3-yl}pyridin-2-yl)amino]-6-[(^2H3)methylcarbamoyl]pyridazin-3-yl}carbamate] |
| 0.2 | [2H]C([2H])([2H])NC(=O)c1nnc(Nc2ccncc2)cc1Nc1nccc(-c2ncn(C)n2)c1OC [Example 35, 4-{[3-methoxy-4-(1-methyl-1H-1,2,4-triazol-3-yl)pyridin-2-yl]amino}-N—(^2H3)methyl-6-[(pyridin-4-yl)amino]pyridazine-3-carboxamide] |
| 0.2 | [2H]C([2H])([2H])NC(=O)c1cnc(NC(=O)CC)cc1Nc1nccc(-c2noc(COC)n2)c1OC [Example 48, 4-({3-methoxy-4-[5-(methoxymethyl)-1,2,4-oxadiazol-3-yl]pyridin-2-yl}amino)-N—(^2H3)methyl-6-propanamidopyridine-3-carboxamide] |
| 0.13 | [2H]C([2H])([2H])NC(=O)c1nnc(Nc2ccc(N3CCN(C(C)(C)C)C3=O)cn2)cc1Nc1nccc(-c2ncn(C)n2)c1OC [Example 37, 6-{[5-(3-tert-butyl-2-oxoimidazolidin-1-yl)pyridin-2-yl]amino}-4-{[3-methoxy-4-(1-methyl-1H-1,2,4-triazol-3-yl)pyridin-2-yl]amino}-N—(^2H3)methylpyridazine-3-carboxamide] |
| 0.12 | [2H]C([2H])([2H])NC(=O)c1cnc(NC(=O)CC)cc1Nc1nccc(-c2noc(C)n2)c1OC [Example 43, 4-{[3-methoxy-4-(5-methyl-1,2,4-oxadiazol-3-yl)pyridin-2-yl]amino}-N—(^2H3)methy-6-propanamidopyridine-3-carboxamide] |
| 0.06 | [2H]C([2H])([2H])NC(=O)c1nnc(NC(=O)C2CC2)cc1Nc1nccc(-c2noc(CN(C)C)n2)c1OC [Example 58, 6-cyclopropaneamido-4-[(4-{5-[(dimethylamino)methyl]-1,2,4-oxadiazol-3-yl}-3-methoxypyridin-2-yl)amino]-N—(^2H3)methylpyridazine-3-carboxamide] |
| 0.03 | [2H]C([2H])([2H])NC(=O)c1cnc(NC(=O)C2CC2)cc1Nc1nccc(-c2noc(C)n2)c1OC [Example 41, 6-cyclopropaneamido-4-{[3-methoxy-4-(5-methyl-1,2,4-oxadiazol-3-yl)pyridin-2-yl]amino}-N—(^2H3)methylpyridine-3-carboxamide] |
| 0.03 | [2H]C([2H])([2H])NC(=O)c1cnc(NC(=O)C2CC2)cc1Nc1nccc(-c2noc(COCC)n2)c1OC [Example 46, 6-cyclopropaneamido-4-({4-[5-(ethoxymethyl)-1,2,4-oxadiazol-3-yl]-3-methoxypyridin-2-yl}amino)-N—(^2H3)methylpyridine-3-carboxamide] |
| 0.03 | [2H]C([2H])([2H])NC(=O)c1nnc(NC(=O)C2CC2)cc1Nc1nccc(-c2noc(CN3CCOCC3)n2)c1OC [Example 55, 6-cyclopropaneamido-4-[(3-methoxy-4-{5-[(morpholin-4-yl)methyl]-1,2,4-oxadiazol-3-yl}pyridin-2-yl)amino]-N—(^2H3)methylpyridazine-3-carboxamide] |
| 0.01 | [2H]C([2H])([2H])NC(=O)c1nnc(Nc2ccc(N3CCOCC3)cn2)cc1Nc1nccc(-c2ncn(C)n2)c1OC [Example 38, 4-{[3-methoxy-4-(1-methyl-1H-1,2,4-triazol-3-yl)pyridin-2-yl]amino}-N—(^2H3)methyl-6-{[5-(morpholin-4-yl)pyridin-2-yl]amino}pyridazine-3-carboxamide] |
